# Measured values published in patent US12485179B2, “Cholecystokinin B receptor targeting for imaging and therapy” (Purdue Research Foundation, priority 2012, dated 2025).
# Experiments:
# [1] = target: T1, CCK2R (Homo sapiens, UniProt P32239); experiment: Binding of 99mTc conjugates to HEK-293 CCK2R cells (cell bound radioactivity); parameters: expressed in transfected cells; host or cells: HEK-293, G418-selected, from Dr. Mark Hellmich (University of Texas at Galveston)
# T1 sequence (P32239 1-447): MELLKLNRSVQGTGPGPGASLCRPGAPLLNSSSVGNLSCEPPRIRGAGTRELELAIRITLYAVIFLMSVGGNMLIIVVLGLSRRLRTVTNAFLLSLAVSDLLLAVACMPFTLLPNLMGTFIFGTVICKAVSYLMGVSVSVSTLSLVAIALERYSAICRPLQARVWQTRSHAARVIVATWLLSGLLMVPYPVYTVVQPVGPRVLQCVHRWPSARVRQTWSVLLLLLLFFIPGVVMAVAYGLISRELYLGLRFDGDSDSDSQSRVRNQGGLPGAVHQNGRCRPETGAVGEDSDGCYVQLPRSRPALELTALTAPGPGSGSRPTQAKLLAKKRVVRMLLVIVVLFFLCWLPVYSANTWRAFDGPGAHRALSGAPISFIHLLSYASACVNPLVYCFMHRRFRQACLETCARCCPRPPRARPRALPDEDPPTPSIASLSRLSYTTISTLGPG
# Experimental: CRL-1, CRL-2, CRL-3 and CRL-4 were chelated to ^99mTc and tested for binding using two transfected cell lines of HEK-CCK2R (HEK-293 CCK2R) and HEK-CCK2R splice cell line (HEK CCK2i4svR), obtained from Dr. Mark Hellmich (University of Texas at Galveston). Cells were cultured in Dulbecco's modified Eagles (Gibco) supplemented with 10% Fetal Bovine Serum and G418 disulfate (SIGMA; 400 μg/ml), 1% penicillin/streptomycin at 37° C. in a humidified 95% air, 5% CO2 atmosphere.
# Competition studies were performed using 100 fold excess of free Z-360 containing corresponding peptide linker and no chelating moiety. HEK 293 CCK2R and HEK CCK2i4svR were seeded onto 24 well plates and allowed to become confluent over 48-72 hours. Spent medium in each well was replaced with 0.5 ml fresh media containing 0.5% BSA and increasing concentrations of the test article. After incubating for 1 h at 37° C. cells were rinsed with incubation solution (2×1.0 ml) to remove any unbound radioactivity. Cells were then resuspended on 0.5 ml 0.25N NaOH and cell radioactivity was counted using a γ-counter. The dissociation constant (KD) was calculated using a plot of cell bound radioactivity versus the concentration of the radiotracer using Graphpad Prism 4 and assuming a non-cooperative single site binding equilibrium.
# [2] = test system: HEK 293 cells expressing the CCK2R; format: cell-based; details: for cell toxicity / potency: concentration range used (FIG. 16); for IC50: dose dependent toxicity
# Experimental: FIGS. 13A-C show the results of a study on the cytotoxicity of conjugate 23 in HEK CCK2R cells, shown at varying hours from introduction. CW-2478 denotes conjugate 23, with FIG. 13A showing values at 2 hours, FIG. 13B showing the values at 4 hours, and FIG. 13C showing the values at 9 hours.
# This may partly explain the modest in vivo antitumor observed activity despite its impressive antagonistic effects.
# [3] = test system: HEK 293 cells expressing CCK2R tumors; experiment: In vivo potency, subcutaneous HEK 293 CCK2R tumors; parameters: species or system nu/nu mice; details: for tumor size / growth during the period of the study / antitumor activity in comparison to untreated controls: 2 μmol/kg per injection
# Experimental: Following the promising results obtained in vitro with the Z-360 targeted chemotherapeutics, antitumor effects of the compounds were investigated in vivo. HEK 293 cells expressing CCK2R (5.0×10^6 in 50% HC matrigel) were injected in the shoulder of 5-6 week old female nu/nu mice. Tumors were measured in two perpendicular directions every two to three days with vernier calipers, and their volumes calculated as 0.5×L×W^2 where L is the longest axis (in millimeters) and W is the axis perpendicular to L (in millimeters). Dosing solutions were prepared in saline and administered through either the lateral vein of the mice for Tubulysin B conjugates or intraperitoneally for desacetylvinblastine hydrazide conjugates. Dosing was initiated when the subcutaneous tumors reached ˜100 mm^3 in volume. Each mouse received 2 μmol/kg of the test conjugate in 100 microliters of saline per injection, three times a week for three weeks. Mouse weights were also recorded at each dosing as a measure of gross toxicity. Mice in the control groups received no treatment.
# [4] = target: T1, CCK2R; details: cited from earlier work
# [5] = test system: subcutaneous PANC-1 tumor; details: oral Z-360 along with gemcitabine, cited from earlier work
# [6] = three times a week for three weeks
Compound,cell toxicity / potency [2],"tumor size / growth during the period of the study [3, 6]","antitumor activity in comparison to untreated controls [3, 6]",IC50 [2] [nM],other results
"CC(C)(C)C(=O)CN1C(=O)[C@H](NC(=O)Nc2cccc(C(=O)N[C@@H](CCC(=O)O)C(=O)N[C@@H](CCC(=O)NC[C@H](O)[C@@H](O)[C@H](O)[C@H](O)CO)C(=O)N[C@@H](CCC(=O)O)C(=O)N[C@@H](CCC(=O)NC[C@H](O)[C@@H](O)[C@H](O)[C@H](O)CO)C(=O)NC[C@H](N)C(=O)N[C@@H](CC(=O)O)C(=O)N[C@@H](CS)C(=O)O)c2)CN(C2CCCCC2)c2ccccc21 [CRL-2 ^99mTc, metal not drawn]",–,–,–,–,specificity of binding (competition with free Z-360) ([1]; compared with CRL-1 99mTc): significantly higher specificity
"CC(C)(C)C(=O)CN1C(=O)[C@H](NC(=O)Nc2cccc(C(=O)NC[C@H](N)C(=O)N[C@@H](CC(=O)O)C(=O)N[C@@H](CS)C(=O)O)c2)CN(C2CCCCC2)c2ccccc21 [CRL-4 ^99mTc, metal not drawn]",–,–,–,–,"Kd ([1]; 1 h at 37° C., 99mTc chelated, read-out: Kd (nM) HEK-293-CCK2R Cells): 270 nM"
CC[C@]1(O)CC2CN(CCc3c([nH]c4ccccc34)[C@@](C(=O)OC)(c3cc4c(cc3OC)N(C)[C@H]3[C@@](O)(C(=O)NNC(=O)OCCSSC[C@H](NC(=O)[C@@H](CCC(=O)NC[C@H](O)[C@@H](O)[C@H](O)[C@H](O)CO)NC(=O)[C@@H](CCC(=O)O)NC(=O)[C@@H](CCC(=O)NC[C@H](O)[C@@H](O)[C@H](O)[C@H](O)CO)NC(=O)[C@@H](CCC(=O)O)NC(=O)CCCCCCCN)C(=O)O)[C@H](O)[C@]5(CC)C=CCN6CC[C@]43[C@@H]65)C2)C1 (some centres unmarked) [Unt-DAVBH],little to no potency,grew at almost the same rate as untreated controls,–,–,–
CCCC(=O)OCN(C(=O)[C@@H](NC(=O)C1CCCCN1C)C(C)CC)[C@H](C[C@@H](OC(C)=O)c1nc(C(=O)N[C@@H](Cc2ccc(O)cc2)C[C@H](C)C(=O)NNC(=O)OCCSSC[C@H](NC(=O)[C@@H](CCC(=O)NC[C@H](O)[C@@H](O)[C@H](O)[C@H](O)CO)NC(=O)[C@@H](CCC(=O)O)NC(=O)[C@@H](CCC(=O)NC[C@H](O)[C@@H](O)[C@H](O)[C@H](O)CO)NC(=O)[C@@H](CCC(=O)O)NC(=O)CCCCCCCN)C(=O)O)cs1)C(C)C (some centres unmarked) [Unt-TubH],little to no potency,–,modest tumor inhibition,–,–
"CC(C)(C)C(=O)CN1C(=O)[C@H](NC(=O)Nc2cccc(C(=O)O)c2)CN(C2CCCCC2)c2ccccc21 [Z-360, (R)-(−)-3-[3-(1-tert-butylcarbonylmethyl-2-oxo-5-cyclohexyl-1,3,4,5-tetrahydro-2H-1,5-benzodiazepin-3-yl)ureido]benzoic acid monohydrate]",no concentration dependent cell toxicity,–,–,–,selectivity ratio over CCK1R ([4]; CCK2R over CCK1R): 672; Ki [4]: 0.47 nM; inhibition of subcutaneous PANC-1 tumor growth ([5]; compared with either agent alone): 27.1%; survival ([5]; compared with the vehicle): significantly increased survival
CCCC(=O)OCN(C(=O)[C@@H](NC(=O)C1CCCCN1C)C(C)CC)[C@H](C[C@@H](OC(C)=O)c1nc(C(=O)N[C@@H](Cc2ccc(O)cc2)C[C@H](C)C(=O)NNC(=O)OCCSSC[C@H](NC(=O)[C@@H](CCC(=O)NC[C@H](O)[C@@H](O)[C@H](O)[C@H](O)CO)NC(=O)[C@@H](CCC(=O)O)NC(=O)[C@@H](CCC(=O)NC[C@H](O)[C@@H](O)[C@H](O)[C@H](O)CO)NC(=O)[C@@H](CCC(=O)O)NC(=O)CCCCCCCNC(=O)c2cccc(NC(=O)N[C@@H]3CN(C4CCCCC4)c4ccccc4N(CC(=O)C(C)(C)C)C3=O)c2)C(=O)O)cs1)C(C)C (some centres unmarked) [conjugate 22],–,reduction of tumor sizes,remarkable antitumor activity,12,"disappearance of tumors ([3]; 2 μmol/kg, three times a week for three weeks, lateral vein): ⅗"
CC[C@]1(O)C[C@@H]2CN(CCc3c([nH]c4ccccc34)[C@@](C(=O)OC)(c3cc4c(cc3OC)N(C)[C@H]3[C@@](O)(C(=O)NNC(=O)OCCSSC[C@H](NC(=O)[C@H](CCC(=O)NC[C@H](O)[C@@H](O)[C@H](O)[C@H](O)CO)NC(=O)[C@H](CCC(=O)O)NC(=O)[C@H](CCC(=O)NC[C@H](O)[C@@H](O)[C@H](O)[C@H](O)CO)NC(=O)[C@H](CCC(=O)O)NC(=O)CCCCCCCNC(=O)c5cccc(NC(=O)N[C@@H]6CN(C7CCCCC7)c7ccccc7N(CC(=O)C(C)(C)C)C6=O)c5)C(=O)O)[C@H](O)[C@]5(CC)C=CCN6CC[C@]43[C@@H]65)C2)C1 [conjugate 23],–,remain the same size,remarkable antitumor activity,–,H & E staining of remaining tumor masses ([3]; conjugate 23 and conjugate 23+competition groups): contain very few malignant cells
tubulysin b [reference compound],–,–,–,1.3,–
vinblastine [reference compound],–,–,–,8,–
